Source: patent US20080058318A1 (priority 2006, published 2008)
Values joined by “and” are separate entries in the source; they are usually repeats but may differ in a detail not shown here. Equal entries are not always repeated. Structures can show the parent of a compound that is named as a salt.

How the values were obtained:
[1] = test system: patients who met the 1990 ACR criteria for fibromyalgia syndrome; test: Example 1 study: composite responder analysis for pain of fibromyalgia (pain reduction plus PGIC); type: in vivo, human; conditions: for Responders for the treatment of the pain of fibromyalgia, % = m/n: observed cases (OC), hydrochloride; for Responders for the treatment of the pain of fibromyalgia, m (number of responders): observed cases
Method: (§1) This was a multi-center, randomized, double-blinded, placebo-controlled three-arm study, which enrolled 888 patients who met the 1990 ACR criteria for fibromyalgia syndrome as well as the more detailed admission criteria outlined in the protocol.
(§2) All randomized medications (placebo and milnacipran) were administered in a split-dose (BID) fashion. The doses were administered in a dose escalation regimen as outlined below:
The primary endpoint of this study was a composite responder analysis implementing analysis of three domains of interest, evaluated at […]. The domains measured were:
1) pain (measured by an electronic diary as a daily recall pain score, calculated to weekly average scores)
2) patient global (measured by the PGIC, 1-7 scale)
For the primary analysis, the pain domain score was determined by a calculation that compared the average of treatment weeks 14 and 15 to the two baseline weeks, and treatment weeks 26 and 27 vs. baseline for the secondary analysis. The last observation was carried forward if neither the week 14 nor week 15 (or week 26/27) patient self-reported pain score is available to compare to the baseline value.
A responder was defined as a subject who experienced a greater than 30% reduction in pain from baseline and improvement on the PGIC.
See Table 1 for a summary of the results in the Intent-to-Treat Population and Table 2 for a summary of the Last Observation Carried Forward (LOCF), Baseline Observation Carried Forward (BOCF) and study completer (OC) populations. LOCF is an analysis in which observations are carried forward to the last time point for patients who dropped out. The LOCF analysis treats the carried-forward data as observed data at the last time point. BOCF is an analysis that requires that the patient remain active in the trial to be evaluated for response. If a patient withdraws from the trial for any reason they are classed as a non-responder irregardless of their pain and global scores at the time of withdrawal.

[2] = test system: fibromyalgia patients; conditions: cited from earlier work
[3] = test system: fibromyalgia patients; conditions: cited from earlier work; remark: listed apart in the source
[4] = test system: patients who met the 1990 ACR criteria for fibromyalgia syndrome; test: Example 1 study: MASQ total score (cognitive function), change from baseline; type: in vivo, human; design: MASQ Total Score - Change from Baseline: scale not given here
Method: as §1, §2
d. FMS Status Assessments: Patient pain 24 hour and 7 day recall VAS, the SF-36, Multiple Ability Self-report Questionnaire (MAS Q, cognitive function), the Multidimensional Health Assessment Questionnaire (MDHAQ) and the Multidimensional Fatigue Inventory (MFI). Diary assessments include current pain (morning, random daily, and evening reports); daily recall pain (morning report); medications taken (evening report); overall pain past week (weekly report), overall fatigue in the last week (weekly report), and the extent that pain kept the patient from caring for themselves (weekly report).
The MASQ is a brief self-report questionnaire, which includes 5 cognitive domains: language ability, visuo-perceptual ability, verbal memory, visual memory, and attention/concentration (Seidenberg et al., J Clin & Exp Neuropsychology 1994; 16:93-104). The MASQ has been validated in both normal subjects and patient groups having cognitive difficulties in the assessment domains.

Q: What does the source list for `CCN(CC)C(=O)C1(c2ccccc2)CC1CN` (racemic) [milnacipran, Z-2-aminomethyl-1-phenyl-N,N-diethylcyclopropanecarboxamide hydrochloride]?
A: Responders for the treatment of the pain of fibromyalgia, % = m/n ([1]; 100 mg/day BID, treatment weeks 14-15 (3 month)): 53.33% and 53.3%; Responders for the treatment of the pain of fibromyalgia, % = m/n ([1]; 100 mg/day BID, treatment weeks 14-15 (3 month), listed as Milnacipran): 53.33%; Responders for the treatment of the pain of fibromyalgia, % = m/n ([1]; 100 mg/day BID, treatment weeks 26-27 (6 month)): 49.59% and 49.6%; Responders for the treatment of the pain of fibromyalgia, % = m/n ([1]; 100 mg/day BID, treatment weeks 26-27 (6 month), listed as Milnacipran): 49.59%; Long-term treatment of fibromyalgia and some of its symptoms, low dose compared with high dose ([1]; 100 mg/day vs 200 mg/day, continued administration): almost as effective as continued administration of high-dose milnacipran; Responders for the treatment of the pain of fibromyalgia, m (number of responders) ([1]; 100 mg/day, treatment weeks 14-15, n = 135): 72; Responders for the treatment of the pain of fibromyalgia, m (number of responders) ([1]; 100 mg/day, treatment weeks 26-27, n = 121): 60; Individual component responder rate, PGIC (LOCF) ([1]; 100 mg, 3 month): 54.0%; Individual component responder rate, Pain (LOCF) ([1]; 100 mg, 3 month): 35.7%; Pain composite responder rate, Sensitivity Analysis I (BOCF) ([1]; 100 mg, 3 month): 32.1%; Pain composite responder rate, Sensitivity Analysis II ([1]; 100 mg, 3 month): 32.%; Pain composite responder rate, Sensitivity Analysis III ([1]; 100 mg, 3 month): 32.1%; Pain composite responder rate, Primary Analysis (LOCF) ([1]; 100 mg, 3 month, N = 224): 33.5%; Individual component responder rate, PGIC (LOCF) ([1]; 100 mg, 6 month): 49.6%; Individual component responder rate, Pain (LOCF) ([1]; 100 mg, 6 month): 35.7%; Pain composite responder rate, Sensitivity Analysis I (BOCF) ([1]; 100 mg, 6 month): 26.8%; Pain composite responder rate, Sensitivity Analysis II ([1]; 100 mg, 6 month): 27.2%; Pain composite responder rate, Sensitivity Analysis III ([1]; 100 mg, 6 month): 29.5%; Pain composite responder rate, Primary Analysis (LOCF) ([1]; 100 mg, 6 month, N = 224): 30.8%; Responders for the treatment of the pain of fibromyalgia, % = m/n ([1]; 200 mg/day BID, treatment weeks 14-15 (3 month)): 55.0%; Responders for the treatment of the pain of fibromyalgia, % = m/n ([1]; 200 mg/day BID, treatment weeks 14-15 (3 month), listed as Milnacipran): 55.00%; Responders for the treatment of the pain of fibromyalgia, % = m/n ([1]; 200 mg/day BID, treatment weeks 26-27 (6 month)): 51.74% and 51.7%; Responders for the treatment of the pain of fibromyalgia, % = m/n ([1]; 200 mg/day BID, treatment weeks 26-27 (6 month), listed as Milnacipran): 51.74%; Responders for the treatment of the pain of fibromyalgia, m (number of responders) ([1]; 200 mg/day, treatment weeks 14-15, n = 260): 143; Responders for the treatment of the pain of fibromyalgia, m (number of responders) ([1]; 200 mg/day, treatment weeks 26-27, n = 230): 119; Individual component responder rate, PGIC (LOCF) ([1]; 200 mg, 3 month): 50.6%; Individual component responder rate, Pain (LOCF) ([1]; 200 mg, 3 month): 38.3%; Pain composite responder rate, Sensitivity Analysis I (BOCF) ([1]; 200 mg, 3 month): 32.4%; Pain composite responder rate, Sensitivity Analysis II ([1]; 200 mg, 3 month): 32.7%; Pain composite responder rate, Sensitivity Analysis III ([1]; 200 mg, 3 month): 32.4%; Pain composite responder rate, Primary Analysis (LOCF) ([1]; 200 mg, 3 month, N = 441): 34.9%; Individual component responder rate, PGIC (LOCF) ([1]; 200 mg, 6 month): 49.9%; Individual component responder rate, Pain (LOCF) ([1]; 200 mg, 6 month): 35.4%; Pain composite responder rate, Sensitivity Analysis I (BOCF) ([1]; 200 mg, 6 month): 27.0%; Pain composite responder rate, Sensitivity Analysis II ([1]; 200 mg, 6 month): 28.6%; Pain composite responder rate, Sensitivity Analysis III ([1]; 200 mg, 6 month): 29.9%; Pain composite responder rate, Primary Analysis (LOCF) ([1]; 200 mg, 6 month, N = 441): 32.2%; Deaths or serious adverse events associated with treatment ([2]; Phase II study): no deaths or serious adverse events; Patients with adverse events from elevation in hepatic enzymes ([2]; milnacipran-treated patients): 2%; Acute (short-term) therapy for the symptom of pain in FMS ([3]; 100 mg BID): effective acute (short-term) therapy; Effect on fatigue, mood, global wellness, and function, BID compared with QD dosing ([3]; BID vs QD, up to 200 mg/day): approximately equally effective; Treating pain, twice-daily dosing compared with QD dosing ([3]; BID vs QD, up to 200 mg/day): more effective in treating pain than QD dosing; PGIC: completers who reported an improvement in their overall status ([3]; both milnacipran treatment groups (BID and QD), up to 200 mg/day): over 70%; PGIC: completers who reported worsening ([3]; milnacipran treatment groups, up to 200 mg/day): 10%; Treatment of cognitive dysfunction associated with FMS (change in MASQ total score), comparison with placebo ([4]; 100 mg/day vs placebo): superior to placebo; MASQ Total Score - Change from Baseline ([4]; 100 mg, treatment week 3): −0.39; MASQ Total Score - Change from Baseline ([4]; 100 mg, treatment week 7): −0.34; MASQ Total Score - Change from Baseline ([4]; 100 mg, treatment week 11): −1.33; MASQ Total Score - Change from Baseline ([4]; 100 mg, treatment week 15): −1.18; MASQ Total Score - Change from Baseline ([4]; 100 mg, treatment week 19): −1.60; MASQ Total Score - Change from Baseline ([4]; 100 mg, treatment week 23): −0.89; MASQ Total Score - Change from Baseline ([4]; 100 mg, treatment week 27): −1.07; Treatment of cognitive dysfunction associated with FMS (change in MASQ total score), 200 mg/day compared with 100 mg/day ([4]; 200 mg/day vs 100 mg/day): superior to milnacipran 100 mg/day; Treatment of cognitive dysfunction associated with FMS (change in MASQ total score), comparison with placebo ([4]; 200 mg/day vs placebo): superior to placebo; MASQ Total Score - Change from Baseline ([4]; 200 mg, treatment week 3): −1.60; MASQ Total Score - Change from Baseline ([4]; 200 mg, treatment week 7): −1.77; MASQ Total Score - Change from Baseline ([4]; 200 mg, treatment week 11): −1.73; MASQ Total Score - Change from Baseline ([4]; 200 mg, treatment week 15): −1.76; MASQ Total Score - Change from Baseline ([4]; 200 mg, treatment week 19): −1.63; MASQ Total Score - Change from Baseline ([4]; 200 mg, treatment week 23): −1.52; MASQ Total Score - Change from Baseline ([4]; 200 mg, treatment week 27): −1.89
